Source: the supplement of paper PMC10307832

How the values were obtained:
Experiment in all cases: relative viability (nuclei count vs DMSO), 5 days (fraction); higher = more cells survive
XMD13-2 + Navitoclax = compound: C1CC1C(=O)NC2=NNC3=C2C=CC(=C3)C4=CC(=CC=C4)C(=O)NC5CC5 [XMD13-2] + CC1(C)CCC(c2ccc(Cl)cc2)=C(CN2CCN(c3ccc(C(=O)NS(=O)(=O)c4ccc(N[C@H](CCN5CCOCC5)CSc5ccccc5)c(S(=O)(=O)C(F)(F)F)c4)cc3)CC2)C1 [Navitoclax] (partner 0.5 µM)
Outline: (§1)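 Relative viability was taken as the ratio of nuclei in treated wells to nuclei in vehicle wells. Lung cancer cell lines in 1536-well plates received compounds by pin tool one day after seeding, either one drug alone or a fixed anchor-drug dose plus five library-drug doses (not always all listed) in √10 steps. Nuclei were counted on 4× images after 5 days of treatment, and values are medians of duplicate plates.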

XMD13-2 + Bortezomib = compound: C1CC1C(=O)NC2=NNC3=C2C=CC(=C3)C4=CC(=CC=C4)C(=O)NC5CC5 [XMD13-2] + CC(C)C[C@H](NC(=O)[C@H](Cc1ccccc1)NC(=O)c1cnccn1)B(O)O [Bortezomib] (partner 0.002 µM)
Outline: as §1

ALW-II-49-7 + Tozasertib = compound: Cc1ccc(C(=O)Nc2cccc(C(F)(F)F)c2)cc1Nc1cncc(C(N)=O)c1 [ALW-II-49-7] + Cc1cc(Nc2cc(N3CCN(C)CC3)nc(Sc3ccc(NC(=O)C4CC4)cc3)n2)n[nH]1 [Tozasertib] (partner 0.1 µM)
Outline: as §1

Dasatinib + Lapatinib = compound: Cc1nc(Nc2ncc(C(=O)Nc3c(C)cccc3Cl)s2)cc(N2CCN(CCO)CC2)n1 [Dasatinib] + CS(=O)(=O)CCNCc1ccc(-c2ccc3ncnc(Nc4ccc(OCc5cccc(F)c5)c(Cl)c4)c3c2)o1 [Lapatinib] (partner 2 µM)
Outline: as §1

| Cell Line | relative viability (XMD13-2 + Navitoclax; first compound 0.05 µM) | relative viability (XMD13-2 + Navitoclax; first compound 0.1581 µM) | relative viability (XMD13-2 + Navitoclax; first compound 0.5 µM) | relative viability (XMD13-2 + Navitoclax; first compound 1.581 µM) | relative viability (XMD13-2 + Navitoclax; first compound 5 µM) | relative viability (XMD13-2 + Bortezomib; first compound 0.05 µM) | relative viability (XMD13-2 + Bortezomib; first compound 0.1581 µM) | relative viability (XMD13-2 + Bortezomib; first compound 0.5 µM) | relative viability (XMD13-2 + Bortezomib; first compound 1.581 µM) | relative viability (XMD13-2 + Bortezomib; first compound 5 µM) | relative viability (ALW-II-49-7 + Tozasertib; first compound 0.08 µM) | relative viability (ALW-II-49-7 + Tozasertib; first compound 0.253 µM) | relative viability (ALW-II-49-7 + Tozasertib; first compound 0.8 µM) | relative viability (ALW-II-49-7 + Tozasertib; first compound 2.53 µM) | relative viability (ALW-II-49-7 + Tozasertib; first compound 8 µM) | relative viability (Dasatinib + Lapatinib; first compound 0.005 µM) | relative viability (Dasatinib + Lapatinib; first compound 0.01581 µM) | relative viability (Dasatinib + Lapatinib; first compound 0.05 µM) | relative viability (Dasatinib + Lapatinib; first compound 0.1581 µM) | relative viability (Dasatinib + Lapatinib; first compound 0.5 µM) |
| --- | --- | --- | --- | --- | --- | --- | --- | --- | --- | --- | --- | --- | --- | --- | --- | --- | --- | --- | --- | --- |
| BEN | 0.186 | 0.0776 | 0.0786 | 0.0451 | 0.0694 | 1.2 | 0.83 | 0.847 | 0.712 | 0.801 | 0.331 | 0.524 | 0.512 | 0.515 | 0.632 | 0.617 | 0.362 | 0.432 | 0.312 | 0.336 |
| NCI-H23 | 1.02 | 0.767 | 0.822 | 0.78 | 0.82 | 1.36 | 0.988 | 1.04 | 0.987 | 1.22 | 0.308 | 0.553 | 0.337 | 0.404 | 0.363 | 1.01 | 1.09 | 0.911 | 0.539 | 0.764 |
| NCI-H1975 | 1.17 | 1.28 | 1.01 | 1.02 | 1.18 | 0.45 | 0.384 | 0.345 | 0.392 | 0.445 | 0.743 | 1.05 | 0.667 | 0.508 | 0.243 | 0.779 | 0.701 | 0.595 | 0.419 | 0.23 |
| COR-L 105 | 0.818 | 0.761 | 1.25 | 0.684 | 0.872 | 1.06 | 0.953 | 0.737 | 0.905 | 0.75 | 0.38 | 0.263 | 0.346 | 0.336 | 0.315 | 0.352 | 0.301 | 0.28 | 0.256 | 0.318 |
| EKVX | 1.17 | 0.869 | 0.859 | 0.973 | 0.997 | 1.23 | 1.03 | 1.06 | 1.1 | 1.09 | 0.323 | 0.413 | 0.344 | 0.322 | 0.381 | 0.205 | 0.165 | 0.149 | 0.123 | 0.0913 |
| NCI-H2009 | 1.22 | 1.15 | 1.22 | 1.14 | 1.21 | 1.05 | 1.12 | 1.4 | 1.02 | 1.01 | 0.771 | 0.804 | 0.707 | 0.653 | 0.562 | 1.13 | 1 | 0.96 | 0.305 | 0.151 |
| NCI-H838 | 1.26 | 1.16 | 1.13 | 1.22 | 1.18 | 1.15 | 0.886 | 1.03 | 0.81 | 0.986 | 0.245 | 0.274 | 0.264 | 0.259 | 0.265 | 0.925 | 0.678 | 0.504 | 0.252 | 0.237 |
| NCI-H2085 | 1.25 | 1.14 | 1.16 | 1.18 | 1.1 | 1.09 | 1.07 | 1.15 | 0.93 | 1.1 | 0.753 | 0.895 | 0.787 | 0.743 | 0.568 | 0.666 | 0.624 | 0.417 | 0.199 | 0.182 |
